The subject of series [1] is p16-3MR mice. Briefly: Next generation sequencing of circulating miRNAs in serum after induction (dox) and removal (GCV) of senescent cells. Type of series: in vivo, mouse. Particulars: for log fold change / avg TPM dox: serum miRNA, NGS; for log fold change: dox vs pbs, p16-3MR mice; for avg TPM dox: dox-treated p16-3MR mice. The method, then: p16-3MR (Demaria et al, 2014, Developmental Cell 31:722-733) mice were bred in house and maintained in the AALAC-accredited Buck Institute for Research on Aging (Novato, Calif.) animal facility. 10 to 12-week-old p16-3MR male mice were used for experiments. Mice were divided in 4 groups and each group consisted of 3 animals. In group A, control mice were injected with PBS. In group B, mice were treated with Ganciclovir (GCV) (Sigma-Aldrich) dissolved in PBS for 5 consecutive days. In group C, mice were treated with one dose of Doxorubicine hydrochloride (Sigma-Aldrich) dissolved in PBS. In group D, mice were first treated with Doxorubicine and then treated 10 days later with GCV. Mice were intraperitoneally injected with one dose of 10 mg/kg of Doxorubicine hydrochloride, and GCV was administered daily by intraperitoneal injections for 5 consecutive days at concentration of 25 mg/kg in PBS. 4 days after the last GCV dose, animals were euthanized with CO2 and blood was withdrawn immediately. Blood was then incubated for 30 min at room temperature and centrifuged at 3400×g for 10 min. Serum was carefully collected in a sterile tube without disturbing the cell pellet and stored at −80° C. for further experiments.
Total RNA extraction was performed from 200 μl of serum using the Qiagen miRNeasy™ extraction kit (Qiagen, Germany). RNA yield was quality checked for homogenous extraction efficiency and hemolysis on the basis qPCR amplification of spiked-in as well as hemolysis-responsive RNAs (Blondal et al). In total 2 μl total RNA were used for library preparation using the CleanTag library preparation protocol (Trilink Biotechnologies, USA), which uses chemically modified adapters to prevent adapter self-ligation. Library quality and yield was controlled using Bioanalyzer DNA-1000 chips. Due to the high purity, libraries were not purified prior to sequencing on an ILLUMINA™ NextSeq 500 sequencing system with 50 bp single-end reads.
Next-generation sequencing was performed at Exiqon (Denmark). Raw reads were quality filtered for a Q-score of 30 or higher. Adapter sequences were trimmed and the remaining reads were mapped against the mouse genome, miRBase, non-coding RNA databases and classified as either microRNAs, small RNAs, genome mapping RNAs or outmapped RNA sequences. Read counts were added for all microRNA isoforms (isomiRs) and normalized by dividing the microRNA read count by the total number of mapped reads and multiplying by 1 million (Tags Per Million). Tags per millions were used for data mining (PCA and hierarchical clustering) using the web-tool clustvis (Metsalu and Vilo 2015).
For differential expression analysis, the EdgeR statistical software package was used. For normalization, the trimmed mean of M-values method was used based on log-fold and absolute gene wise changes in expression levels between samples (TMM normalization). […] Additionally, the normalization step offsets under-sampling effects (due to highly expressed microRNAs dominating the read set) by identifying scaling factors that minimize log-fold changes between samples across the majority of microRNAs.
For exploratory data analysis we applied principal component analysis (PCA) to the dataset of 50 most variable microRNAs according to the coefficient of variation. The PCA plot clearly indicates an effect of […] (dox) treatment on circulating microRNA levels in p16-3MR mice compared to the PBS treated control animals (FIG. 2). […] Analysis of differentially circulating miRNAs was focused on changes between dox treated versus control (PBS) to identify those miRNAs that are modulated by induction of senescence, as well as dox-GCV vs dox, in order to identify miRNAs that change after removal of senescent cells. A p-value threshold of <0.05 without correction for multiple testing was used. […] GCV-treated animals are supposed to have a reduced number of senescent cells compared to PBS due to forced apoptosis. […]

The subject of series [2] is p16-3MR mice. Briefly: ROC analysis of discriminatory power of circulating microRNAs. Type of series: in vivo, mouse. Particulars: serum, RT-qPCR, symbol after the number = significance; for ROC Analysis AUC Senescence: DOX vs PBS; for ROC Analysis AUC Senolytic Treatment: DOX/GCV vs DOX. On the procedure: (§1) Statistical analysis was performed using Medcalc (version 18.2.1). Normal distribution was assessed using D'Agostino-Pearson test, where normality was accepted at p>0.05. One-way ANOVA together together with Student-Newman-Keuls test for all pairwise comparisons (post-hoc tests) was used to identify significant changes between groups (p<0.05). To assess the discriminatory power of individual microRNAs, receiver operating characteristic (ROC) analysis was applied. ROC curves were plotted using sensitivity (y-axis) and 1-specificity (x-axis) and the area under the ROC curve (AUC) was calculated. MicroRNAs with AUC-values of >0.7 were considered as good discriminators/biomarkers. MicroRNAs with AUC-values >0.8 were considered very good discriminators/biomarkers.
In order to assess the diagnostic power of circulating microRNAs for the exposure with senescence inducing substances (DOX) as well as the efficacy of senolytic treatment, ROC analysis was performed and the area-under-the-curve (AUC) was calculated. […] Table 23 below summarizes AUC values as well as 95% confidence intervals for 24 selected circulating microRNAs.

The test system of series [3] is p16-3MR mice. Kind of series: RT-qPCR verification of serum circulating microRNA changes, one-way ANOVA. Type of series: in vivo, mouse. The settings on record: for One-way ANOVA Senolytic Treatment (DOX/GCV) / One-way ANOVA Senescence (DOX vs PBS): serum; for One-way ANOVA Senolytic Treatment (DOX/GCV): DOX/GCV compared to DOX; for One-way ANOVA Senescence (DOX vs PBS): n=8 per group, male and female mice. The method, then:
p16-3MR (Demaria et al, 2014, Developmental Cell 31:722-733) mice were bred in house and maintained in the AALAC-accredited Buck Institute for Research on Aging (Novato, Calif.) animal facility. 10 to 12-week-old p16-3MR […] mice were used for experiments. Mice were divided in 4 groups and each group consisted of 8 animals, 5 female, and 3 male, respectively. In group A, control mice were injected with PBS. In group B, mice were treated with Ganciclovir (GCV) (Sigma-Aldrich) dissolved in PBS for 5 consecutive days. In group C, mice were treated with one dose of Doxorubicine hydrochloride (Sigma-Aldrich) dissolved in PBS. In group D, mice were first treated with Doxorubicine and then treated 10 days later with GCV. Mice were intraperitoneally injected with one dose of 10 mg/kg of Doxorubicine hydrochloride, and GCV was administered daily by intraperitoneal injections for 5 consecutive days at concentration of 25 mg/kg in PBS. 4 days after the last GCV dose, animals were euthanized with CO2 and blood was withdrawn immediately. Blood was then incubated for 30 min at room temperature and centrifuged at 3400×g for 10 min. Serum was carefully collected in a sterile tube without disturbing the cell pellet and stored at −80° C. for further experiments.
Total RNA extraction was performed from 200 μl of serum using the Qiagen miRNeasy extraction kit (Qiagen, Germany). RNA yield was quality checked for homogenous extraction efficiency and hemolysis on the basis qPCR amplification of spiked-in as well as hemolysis-responsive RNAs (Blondal et al). In total 2 μl total RNA were used for reverse transcription using the Exiqon Universal RT kit II (Exiqon, Denmark). The obtained cDNA samples were pre-diluted 1:40 and subsequently mixed with SYBR Green® Mix (Exiqon, Denmark) to achieve a 1:100 dilution. The mix was distributed to primer-coated 384-well plates containing dried primer pairs for 96 selected microRNA or quality control assays. QPCR amplification was performed on a Roche LightCycler 480 II, using the manufacturer's recommendation for annealing, extension and denaturation.
Raw Cq-values were computed using the 2nd derivative method. Melting curves were checked for peaks to ensure specificity of the amplification reactions. Cq-values were subsequently normalized using Spike-In controls as references, to reduce technical noise in the data.
as §1
Background: Quantitative PCR measures a nucleic acid by following its amplification.

The subject of series [4] is p16-3MR mice. Kind of series: Pearson correlation of serum miRNA levels to miR-34a-5p and miR-27a-3p. Also on record: species or system mouse. The settings on record: for Pearson Correlcation coefficient miR44a-5p: correlation of serum level to miR44a-5p (so in the source); for Pearson Correlcation coefficient miR-27a-3p: correlation of serum level to miR-27a-3p. The text has this: In order to extend these finding to potential additional miRNAs, we performed Pearson correlation to miR-34a-5p and miR-27a-3p, resulting in additional potential biomarkers (Table 18).

Data on 14 compounds can be found in patent US11814680B2, “Biomarkers for detecting senescent cells” (Universität für Bodenkultur Wien, priority 2017, dated 2023).

Marks after values point to notes of the source that are not given here.

Consider `COc1cccc2c1C(=O)c1c(O)c3c(c(O)c1C2=O)C[C@@](O)(C(=O)CO)C[C@@H]3O[C@H]1C[C@H](N)[C@H](O)[C@H](C)O1.Cl` [Doxorubicine hydrochloride, reference compound], for which the “circulating miRNA levels upon induction of senescence” value in the series on p16-3MR mice [1] (PCA of 50 most variable microRNAs, compared to PBS, in words) was “significantly changed”.
For the compound `Nc1nc(O)c2ncn(COC(CO)CO)c2n1` [ganciclovir, Ganciclovir, reference compound], the “serum miRNAs compared to PBS treated animals” value in the series on p16-3MR mice [1] (GCV 25 mg/kg i.p. for 5 days, in words) is “consistent decrease”.
For the compound “miR-24-3p: circulating microRNA biomarker, SEQ ID No. 21 (UGGCUCAGUUCAGCAGGAACAG; expressed or natural sequence; listed as Homo sapiens)”, in the series on p16-3MR mice [2], the “ROC Analysis AUC Senescence” value is listed as 0.609° and the “ROC Analysis AUC Senolytic Treatment” value is reported as 0.789*. Besides, the “change of serum level following senolytic treatment (DOX/GCV compared to DOX)” value in the series on p16-3MR mice [3] (p<0.05, in words) is listed as “significantly changed”. Besides, in the series on p16-3MR mice [3], the “One-way ANOVA Senolytic Treatment (DOX/GCV)” value is “* (significant p < 0.05)” and the “One-way ANOVA Senescence (DOX vs PBS)” value is on record as “○”. In the series on p16-3MR mice [4], the “Pearson Correlcation coefficient miR44a-5p” value was 0.61 and the “Pearson Correlcation coefficient miR-27a-3p” value was determined as 0.89.
For “miR-151-5p: circulating microRNA biomarker, SEQ ID No. 17 (UCGAGGAGCUCACAGUCUAGU; expressed or natural sequence; listed as Homo sapiens)”, in the series with p16-3MR mice [2], the “ROC Analysis AUC Senescence” value is listed as 0.828* and the “ROC Analysis AUC Senolytic Treatment” value is given as 0.609°. The “regulation in serum after exposure to DOX compared to PBS” value in the series with p16-3MR mice [3] (independent of gender, in words) is reported as “significantly (up- or down-regulated)”. In the series with p16-3MR mice [3], the “One-way ANOVA Senolytic Treatment (DOX/GCV)” value is given as “○” and the “One-way ANOVA Senescence (DOX vs PBS)” value is on record as “* (significant p < 0.05)”. In addition, in the series on p16-3MR mice [4], the “Pearson Correlcation coefficient miR44a-5p” value was found to be 0.73 and the “Pearson Correlcation coefficient miR-27a-3p” value stood at 0.37.
With “mmu-let-7f-5p: circulating microRNA, SEQ ID No. 2 (UGAGGUAGUAGAUUGUAUAGUU; expressed or natural sequence; listed as Homo sapiens)”, in the series with p16-3MR mice [1], the log fold change was −1.29 and the “avg TPM dox” value is 178.25 TPM.
Turning to “mmu-miR-30b-5p: circulating microRNA, SEQ ID No. 9 (UGUAAACAUCCUACACUCAGCU; expressed or natural sequence; listed as Homo sapiens)”, in the series with p16-3MR mice [4], the “Pearson Correlcation coefficient miR44a-5p” value came to 0.70 and the “Pearson Correlcation coefficient miR-27a-3p” value is 0.65.
As for “mmu-miR-143-3p: circulating microRNA, SEQ ID No. 4 (UGAGAUGAAGCACUGUAGCUC; expressed or natural sequence; listed as Homo sapiens)”, in the series with p16-3MR mice [1], the log fold change is −1.57 and the “avg TPM dox” value was 393.00 TPM.
For “mmu-miR-144-5p: circulating microRNA, SEQ ID No. 7 (GGAUAUCAUCAUAUACUGUAAG; expressed or natural sequence; listed as Homo sapiens)” the same measures were −1.06 and 34.50 TPM.
Take “mmu-miR-191-5p: circulating microRNA, SEQ ID No. 18 (CAACGGAAUCCCAAAAGCAGCUG; expressed or natural sequence; listed as Homo sapiens)”: in the series on p16-3MR mice [4], the “Pearson Correlcation coefficient miR44a-5p” value is 0.32 and the “Pearson Correlcation coefficient miR-27a-3p” value is on record as 0.81.
Turning to “mmu-miR-223-3p: circulating microRNA, SEQ ID No. 19 (UGUCAGUUUGUCAAAUACCCCA; expressed or natural sequence; listed as Homo sapiens)”, in the series with p16-3MR mice [4], the “Pearson Correlcation coefficient miR44a-5p” value came to 0.55 and the “Pearson Correlcation coefficient miR-27a-3p” value turned out to be 0.83.
The matching figures for “mmu-miR-339-5p: circulating microRNA, SEQ ID No. 10 (UCCCUGUCCUCCAGGAGCUCACG; expressed or natural sequence; listed as Homo sapiens)”: 0.64 and 0.87.
Take “mmu-miR-652-3p: circulating microRNA, SEQ ID No. 13 (AAUGGCGCCACUAGGGUUGUG; expressed or natural sequence; listed as Homo sapiens)”: in the series with p16-3MR mice [4], the “Pearson Correlcation coefficient miR44a-5p” value is 0.77 and the “Pearson Correlcation coefficient miR-27a-3p” value is 0.66.
In the case of “mmu-miR-3058-3p: circulating microRNA, SEQ ID No. 8 (UUCCUGUCAGCCGUGGGUGCC; expressed or natural sequence; listed as Homo sapiens)”, in the series with p16-3MR mice [4], the “Pearson Correlcation coefficient miR44a-5p” value is recorded as 0.80 and the “Pearson Correlcation coefficient miR-27a-3p” value came to 0.54.
The matching figures for “mmu-miR-6395: circulating microRNA, SEQ ID No. 12 (CUGGCCCUCUCUGCCCUGUUUA; expressed or natural sequence; listed as Homo sapiens)”: 0.61 and 0.81.
